Measured values from ChEMBL document CHEMBL1134754, “Influence of the terminal amide fragment geometry in some 3-arylideneindolin-2(1H)-ones on their 5-HT1A/5-HT2A receptor activity” (Bioorg Med Chem Lett, 2001).

Legend:
[1] = target: T1, 5-hydroxytryptamine receptor 1A (Rattus norvegicus, UniProt P19327); assay: Displacement of [3H]8-OH-DPAT from 5-hydroxytryptamine 1A receptor of rat hippocampus; type: tissue-based
T1 sequence (P19327 whole entry): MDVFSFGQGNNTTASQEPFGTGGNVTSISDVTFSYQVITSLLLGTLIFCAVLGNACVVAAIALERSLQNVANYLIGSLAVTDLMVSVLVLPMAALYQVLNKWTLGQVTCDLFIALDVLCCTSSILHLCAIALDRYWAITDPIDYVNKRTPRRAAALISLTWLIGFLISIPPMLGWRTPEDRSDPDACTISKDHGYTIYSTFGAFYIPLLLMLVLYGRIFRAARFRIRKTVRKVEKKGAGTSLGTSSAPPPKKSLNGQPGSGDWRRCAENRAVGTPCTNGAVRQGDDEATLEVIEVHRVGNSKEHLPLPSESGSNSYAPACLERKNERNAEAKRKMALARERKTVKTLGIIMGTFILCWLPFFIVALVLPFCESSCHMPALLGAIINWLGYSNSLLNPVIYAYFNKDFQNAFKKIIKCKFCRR

Mus musculus = assay: In vivo effective dose required for inhibiting (+/-)-DOI-induced (2.5 mg/kg, ip) twitches in mice; type: functional
[2] = target: 5-hydroxytryptamine receptor 2A (Rattus norvegicus, UniProt P14842); assay: Displacement of [3H]- Ketanserin from rat cortex 5-hydroxytryptamine 2A receptor
Rattus norvegicus [3] = assay: Tested for induction of lower lip retraction(LLR) in rats at 10 mg/kg, ip, given 15 min before the test; type: functional
Rattus norvegicus [4] = assay: Tested for induction of lower lip retraction(LLR) in rats at 20 mg/kg, ip, given 15 min before the test; type: functional
Rattus norvegicus [5] = assay: Dose dependendt inhibition of 8-OH-DPAT(1 mg/kg, sc) induced lower lip retraction(LLR) in rats pre-administered 10 mg/kg ip dose; type: functional; details: route intraperitoneal
Rattus norvegicus [6] = assay: Dose dependendt inhibition of 8-OH-DPAT(1 mg/kg, sc) induced lower lip retraction(LLR) in rats pre-administered 20 mg/kg ip dose; type: functional; details: route intraperitoneal
Rattus norvegicus [7] = assay: Tested for induction of lower lip retraction(LLR) in rats at 20 mg/kg.; type: functional

Sequence of 5-hydroxytryptamine receptor 2A (P14842 whole entry): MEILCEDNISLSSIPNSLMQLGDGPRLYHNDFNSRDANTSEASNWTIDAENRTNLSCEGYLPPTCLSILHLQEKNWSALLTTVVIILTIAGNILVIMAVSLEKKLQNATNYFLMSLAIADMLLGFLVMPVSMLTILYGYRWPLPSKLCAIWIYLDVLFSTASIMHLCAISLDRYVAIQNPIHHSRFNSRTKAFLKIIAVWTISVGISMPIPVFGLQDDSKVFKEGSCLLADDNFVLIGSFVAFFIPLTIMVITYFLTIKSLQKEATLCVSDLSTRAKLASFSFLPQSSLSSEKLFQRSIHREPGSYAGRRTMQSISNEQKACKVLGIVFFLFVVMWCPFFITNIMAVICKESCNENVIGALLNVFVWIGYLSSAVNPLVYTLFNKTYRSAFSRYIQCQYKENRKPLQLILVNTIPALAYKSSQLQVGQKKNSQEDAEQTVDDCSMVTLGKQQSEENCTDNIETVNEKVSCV

| Structure (SMILES) | Ki [1] [nM] | Ki [2] [nM] | ED50 (Mus musculus) [mg/kg] | Induction (Rattus norvegicus [3]) | Induction (Rattus norvegicus [4]) | Incidence_count (Rattus norvegicus [5]) | Incidence_count (Rattus norvegicus [6]) | Induction (Rattus norvegicus [7]) |
| --- | --- | --- | --- | --- | --- | --- | --- | --- |
| O=C1/C(=C/c2cccs2)c2ccccc2N1CCCN1CCN(c2cccc(Cl)c2)CC1 | > 50000 | 64 | 16 |  |  |  |  |  |
| O=C1/C(=C\c2cccs2)c2ccccc2N1CCCN1CCN(c2cccc(Cl)c2)CC1 | 20500 | 138 |  |  |  |  |  |  |
| O=C1/C(=C/c2cccnc2)c2ccccc2N1CCCN1CCN(c2cccc(Cl)c2)CC1 | 101 | 7 | 9.5 |  |  |  |  |  |
| O=C(c1ccc(F)cc1)C1CCN(CCn2c(=O)[nH]c3ccccc3c2=O)CC1 [KETANSERIN] | 1930 |  | 0.12 |  |  |  |  |  |
| O=C1Cc2ccccc2N1CCCN1CCN(c2cccc(Cl)c2)CC1 | 29 | 25 | 6.5 |  |  |  |  |  |

Further lines, with some results ahead:

| Ki [1] [nM] | Ki [2] [nM] | Structure (SMILES) | ED50 (Mus musculus) [mg/kg] | Induction (Rattus norvegicus [3]) | Induction (Rattus norvegicus [4]) | Incidence_count (Rattus norvegicus [5]) | Incidence_count (Rattus norvegicus [6]) | Induction (Rattus norvegicus [7]) |
| --- | --- | --- | --- | --- | --- | --- | --- | --- |
|  | 36 | COc1ccc(/C=C2\C(=O)N(CCCN3CCN(c4cccc(Cl)c4)CC3)c3ccccc32)cc1 | 16 |  |  |  |  |  |
| 1610 | 32 | O=C1/C(=C/c2ccc(Cl)cc2)c2ccccc2N1CCCN1CCN(c2cccc(Cl)c2)CC1 | 20 |  |  |  |  |  |
| 57 | 20 | O=C1/C(=C\c2cccnc2)c2ccccc2N1CCCN1CCN(c2cccc(Cl)c2)CC1 | 27 | 0.1 | 0.1 | 2.3 | 0.9 |  |
| 538 | 20 | COc1ccc(/C=C2/C(=O)N(CCCN3CCN(c4cccc(Cl)c4)CC3)c3ccccc32)cc1 | 28.5 |  |  |  |  |  |
| 54 | 56 | O=C1/C(=C\c2ccccc2)c2ccccc2N1CCCN1CCN(c2cccc(Cl)c2)CC1 | 27.5 | 0.1 |  | 1.9 | 0.8 | 0.2 |
| 399 | 38 | O=C1/C(=C/c2ccccc2)c2ccccc2N1CCCN1CCN(c2cccc(Cl)c2)CC1 | 28.5 |  |  |  |  |  |
| 204 | 366 | O=C1/C(=C\c2ccc(Cl)cc2)c2ccccc2N1CCCN1CCN(c2cccc(Cl)c2)CC1 | 15 |  |  |  |  |  |
